From ChEMBL document CHEMBL1137046, “Potent and selective proline derived dipeptidyl peptidase IV inhibitors” (Bioorg Med Chem Lett, 2004)

Columns and labels:
[1] = biological target: Dipeptidyl peptidase 2 (Homo sapiens, UniProt Q9UHL4); assay: Inhibition of Quiescent cell prolyl dipeptidase
[2] = biological target: T1, Xaa-Pro dipeptidase (Homo sapiens, UniProt P12955); assay: Inhibition of prolidase
T1 sequence (P12955 whole entry): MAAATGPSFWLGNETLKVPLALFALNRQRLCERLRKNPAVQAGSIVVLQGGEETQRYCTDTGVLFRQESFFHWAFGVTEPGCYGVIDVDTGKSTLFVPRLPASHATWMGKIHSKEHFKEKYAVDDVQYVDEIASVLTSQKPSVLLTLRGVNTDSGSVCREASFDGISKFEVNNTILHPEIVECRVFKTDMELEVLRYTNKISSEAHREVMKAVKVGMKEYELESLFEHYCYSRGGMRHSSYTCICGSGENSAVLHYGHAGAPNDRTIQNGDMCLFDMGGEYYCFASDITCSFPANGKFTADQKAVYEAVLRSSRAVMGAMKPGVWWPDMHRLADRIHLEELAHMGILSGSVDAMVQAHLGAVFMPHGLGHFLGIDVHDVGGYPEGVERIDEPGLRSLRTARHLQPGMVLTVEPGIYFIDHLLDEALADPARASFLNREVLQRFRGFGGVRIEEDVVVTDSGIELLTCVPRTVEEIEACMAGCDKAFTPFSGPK

[3] = Oral bioavailability in rat (dose 1 mg/kg i.v. and 2 mg/kg p.o.); assay type: ADME, organism-based; settings: in vivo
[4] = biological target: Dipeptidyl peptidase 8 (Homo sapiens, UniProt Q6V1X1); assay: Inhibition of Dipeptidylpeptidase VIII
Chain of Dipeptidyl peptidase 8 (Q6V1X1 whole entry): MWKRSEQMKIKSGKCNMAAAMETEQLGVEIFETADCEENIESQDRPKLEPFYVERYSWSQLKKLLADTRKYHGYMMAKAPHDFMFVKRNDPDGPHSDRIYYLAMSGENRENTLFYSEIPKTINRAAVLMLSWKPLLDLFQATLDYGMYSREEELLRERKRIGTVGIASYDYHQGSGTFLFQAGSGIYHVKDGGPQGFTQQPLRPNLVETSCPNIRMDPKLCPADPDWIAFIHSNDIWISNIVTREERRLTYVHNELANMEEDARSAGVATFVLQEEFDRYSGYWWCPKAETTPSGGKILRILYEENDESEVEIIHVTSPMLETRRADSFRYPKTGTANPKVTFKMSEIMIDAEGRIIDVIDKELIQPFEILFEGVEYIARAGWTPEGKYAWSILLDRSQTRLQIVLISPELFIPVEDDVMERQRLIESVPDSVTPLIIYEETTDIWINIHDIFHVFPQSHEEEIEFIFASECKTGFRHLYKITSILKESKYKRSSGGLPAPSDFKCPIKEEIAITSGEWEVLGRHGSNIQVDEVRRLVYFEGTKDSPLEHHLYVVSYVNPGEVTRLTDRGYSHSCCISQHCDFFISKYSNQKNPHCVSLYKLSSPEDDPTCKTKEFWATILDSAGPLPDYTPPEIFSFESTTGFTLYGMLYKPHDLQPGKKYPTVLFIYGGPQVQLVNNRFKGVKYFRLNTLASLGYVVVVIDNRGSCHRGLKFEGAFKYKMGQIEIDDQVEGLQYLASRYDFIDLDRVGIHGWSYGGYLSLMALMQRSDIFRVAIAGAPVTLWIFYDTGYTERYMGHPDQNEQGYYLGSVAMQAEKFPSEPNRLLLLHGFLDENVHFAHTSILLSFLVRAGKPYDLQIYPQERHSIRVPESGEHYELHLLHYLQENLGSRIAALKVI

[5] = biological target: T2, Prolyl endopeptidase FAP (Homo sapiens, UniProt Q12884); assay: Inhibition of Fibroblast activation protein alpha (seprase)
T2 sequence (Q12884 whole entry): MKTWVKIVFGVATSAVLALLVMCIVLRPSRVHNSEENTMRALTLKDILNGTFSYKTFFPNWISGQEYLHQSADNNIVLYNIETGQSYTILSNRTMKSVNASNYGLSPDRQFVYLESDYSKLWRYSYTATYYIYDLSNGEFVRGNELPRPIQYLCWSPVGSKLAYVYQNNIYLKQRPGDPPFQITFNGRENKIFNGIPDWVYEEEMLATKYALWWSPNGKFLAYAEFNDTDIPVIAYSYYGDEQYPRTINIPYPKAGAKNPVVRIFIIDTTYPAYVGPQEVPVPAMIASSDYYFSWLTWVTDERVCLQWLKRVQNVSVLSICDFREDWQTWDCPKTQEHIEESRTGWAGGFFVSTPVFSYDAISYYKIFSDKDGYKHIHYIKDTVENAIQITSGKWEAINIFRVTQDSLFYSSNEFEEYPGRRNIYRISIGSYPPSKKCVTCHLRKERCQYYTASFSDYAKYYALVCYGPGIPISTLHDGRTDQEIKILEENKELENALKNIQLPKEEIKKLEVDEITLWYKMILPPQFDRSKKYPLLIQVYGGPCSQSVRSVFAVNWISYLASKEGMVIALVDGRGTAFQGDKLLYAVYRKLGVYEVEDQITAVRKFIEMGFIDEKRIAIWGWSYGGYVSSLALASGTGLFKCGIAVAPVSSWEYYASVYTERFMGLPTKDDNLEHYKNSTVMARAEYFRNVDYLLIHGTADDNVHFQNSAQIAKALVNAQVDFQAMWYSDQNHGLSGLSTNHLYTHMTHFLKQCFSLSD

[6] = Half-life in rats ([…]/[…] mg/kg i.v./p.o.); assay type: ADME, organism-based; settings: rat, in vivo, 2 mg/kg
[7] = biological target: Dipeptidyl peptidase 4 (Homo sapiens, UniProt P27487); assay: Inhibition of human recombinant Dipeptidylpeptidase IV
Chain of Dipeptidyl peptidase 4 (P27487 whole entry): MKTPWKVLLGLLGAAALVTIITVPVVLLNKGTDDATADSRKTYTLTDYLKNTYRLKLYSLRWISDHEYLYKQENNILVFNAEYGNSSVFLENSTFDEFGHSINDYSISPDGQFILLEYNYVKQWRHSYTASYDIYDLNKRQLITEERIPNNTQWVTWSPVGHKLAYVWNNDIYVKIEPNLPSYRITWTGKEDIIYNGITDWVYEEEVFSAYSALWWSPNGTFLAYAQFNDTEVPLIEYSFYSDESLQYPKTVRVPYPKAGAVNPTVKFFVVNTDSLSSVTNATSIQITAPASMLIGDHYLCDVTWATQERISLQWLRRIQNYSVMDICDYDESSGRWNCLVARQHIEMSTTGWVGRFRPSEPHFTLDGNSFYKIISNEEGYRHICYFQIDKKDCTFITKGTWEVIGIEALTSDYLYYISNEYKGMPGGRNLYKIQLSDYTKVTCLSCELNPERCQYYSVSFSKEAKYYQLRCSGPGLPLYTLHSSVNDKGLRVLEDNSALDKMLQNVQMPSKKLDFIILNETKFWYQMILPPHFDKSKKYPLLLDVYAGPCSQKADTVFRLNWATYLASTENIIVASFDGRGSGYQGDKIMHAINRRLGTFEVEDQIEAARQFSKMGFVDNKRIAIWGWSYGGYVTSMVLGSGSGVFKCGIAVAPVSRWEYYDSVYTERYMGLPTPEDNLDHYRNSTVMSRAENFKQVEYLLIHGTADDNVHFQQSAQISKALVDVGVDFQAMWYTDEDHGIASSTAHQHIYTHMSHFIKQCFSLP

[8] = Plasma clearance in rats (1/2 mg/kg i.v./p.o.); assay type: ADME, organism-based; settings: rat, 1 mg/kg i.v.
[9] = Inhibition of Aminopeptidase P
[10] = biological target: Dipeptidyl peptidase 9 (Homo sapiens, UniProt Q86TI2); assay: Inhibition of Dipeptidylpeptidase IX
Chain of Dipeptidyl peptidase 9 (Q86TI2 whole entry): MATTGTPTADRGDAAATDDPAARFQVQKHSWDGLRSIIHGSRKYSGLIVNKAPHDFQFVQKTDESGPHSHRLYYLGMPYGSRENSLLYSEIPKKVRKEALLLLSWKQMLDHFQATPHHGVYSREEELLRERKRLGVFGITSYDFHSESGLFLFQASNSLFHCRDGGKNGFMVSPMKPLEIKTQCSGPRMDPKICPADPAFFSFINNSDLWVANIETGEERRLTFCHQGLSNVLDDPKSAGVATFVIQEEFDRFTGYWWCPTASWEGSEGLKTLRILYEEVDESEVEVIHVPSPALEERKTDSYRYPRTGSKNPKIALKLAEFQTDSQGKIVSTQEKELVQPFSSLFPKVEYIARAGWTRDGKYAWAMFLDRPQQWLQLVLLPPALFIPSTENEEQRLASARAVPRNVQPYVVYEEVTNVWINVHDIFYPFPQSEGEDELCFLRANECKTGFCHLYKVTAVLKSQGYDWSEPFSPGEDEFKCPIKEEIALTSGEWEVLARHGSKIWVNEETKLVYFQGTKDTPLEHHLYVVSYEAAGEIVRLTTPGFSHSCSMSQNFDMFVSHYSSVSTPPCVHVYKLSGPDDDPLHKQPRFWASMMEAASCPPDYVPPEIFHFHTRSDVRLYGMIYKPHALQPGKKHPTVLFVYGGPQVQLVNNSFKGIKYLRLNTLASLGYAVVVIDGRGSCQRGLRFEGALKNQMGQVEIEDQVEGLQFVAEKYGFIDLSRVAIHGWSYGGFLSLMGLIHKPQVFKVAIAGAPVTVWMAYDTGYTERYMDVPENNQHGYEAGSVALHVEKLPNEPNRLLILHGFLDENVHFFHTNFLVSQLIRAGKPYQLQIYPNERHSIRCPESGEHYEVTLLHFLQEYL

[11] = biological target: T3, Prolyl endopeptidase (Homo sapiens, UniProt P48147); assay: Inhibition of prolyl endopeptidase
T3 sequence (P48147 whole entry): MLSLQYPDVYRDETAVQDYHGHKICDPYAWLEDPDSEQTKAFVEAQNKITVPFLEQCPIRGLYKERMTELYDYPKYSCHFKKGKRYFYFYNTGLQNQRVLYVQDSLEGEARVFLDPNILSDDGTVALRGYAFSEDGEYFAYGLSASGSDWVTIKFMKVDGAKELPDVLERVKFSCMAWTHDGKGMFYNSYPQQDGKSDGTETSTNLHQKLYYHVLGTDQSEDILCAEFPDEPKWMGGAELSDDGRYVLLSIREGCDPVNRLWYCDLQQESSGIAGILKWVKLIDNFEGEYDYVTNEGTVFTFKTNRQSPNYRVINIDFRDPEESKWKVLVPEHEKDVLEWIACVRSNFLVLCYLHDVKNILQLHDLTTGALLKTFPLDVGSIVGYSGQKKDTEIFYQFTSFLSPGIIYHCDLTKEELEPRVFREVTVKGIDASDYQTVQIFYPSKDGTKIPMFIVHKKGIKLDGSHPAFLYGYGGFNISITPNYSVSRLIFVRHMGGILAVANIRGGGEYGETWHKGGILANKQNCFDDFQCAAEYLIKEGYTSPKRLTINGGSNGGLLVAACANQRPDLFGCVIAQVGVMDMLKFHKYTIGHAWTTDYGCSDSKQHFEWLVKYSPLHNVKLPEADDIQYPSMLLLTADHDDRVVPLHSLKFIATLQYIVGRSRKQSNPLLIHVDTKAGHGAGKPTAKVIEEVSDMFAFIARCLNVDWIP

[12] = biological target: Voltage-gated inwardly rectifying potassium channel KCNH2 (Homo sapiens, UniProt Q12809); assay: Inhibition of human Potassium channel HERG
Chain of Voltage-gated inwardly rectifying potassium channel KCNH2 (Q12809 whole entry): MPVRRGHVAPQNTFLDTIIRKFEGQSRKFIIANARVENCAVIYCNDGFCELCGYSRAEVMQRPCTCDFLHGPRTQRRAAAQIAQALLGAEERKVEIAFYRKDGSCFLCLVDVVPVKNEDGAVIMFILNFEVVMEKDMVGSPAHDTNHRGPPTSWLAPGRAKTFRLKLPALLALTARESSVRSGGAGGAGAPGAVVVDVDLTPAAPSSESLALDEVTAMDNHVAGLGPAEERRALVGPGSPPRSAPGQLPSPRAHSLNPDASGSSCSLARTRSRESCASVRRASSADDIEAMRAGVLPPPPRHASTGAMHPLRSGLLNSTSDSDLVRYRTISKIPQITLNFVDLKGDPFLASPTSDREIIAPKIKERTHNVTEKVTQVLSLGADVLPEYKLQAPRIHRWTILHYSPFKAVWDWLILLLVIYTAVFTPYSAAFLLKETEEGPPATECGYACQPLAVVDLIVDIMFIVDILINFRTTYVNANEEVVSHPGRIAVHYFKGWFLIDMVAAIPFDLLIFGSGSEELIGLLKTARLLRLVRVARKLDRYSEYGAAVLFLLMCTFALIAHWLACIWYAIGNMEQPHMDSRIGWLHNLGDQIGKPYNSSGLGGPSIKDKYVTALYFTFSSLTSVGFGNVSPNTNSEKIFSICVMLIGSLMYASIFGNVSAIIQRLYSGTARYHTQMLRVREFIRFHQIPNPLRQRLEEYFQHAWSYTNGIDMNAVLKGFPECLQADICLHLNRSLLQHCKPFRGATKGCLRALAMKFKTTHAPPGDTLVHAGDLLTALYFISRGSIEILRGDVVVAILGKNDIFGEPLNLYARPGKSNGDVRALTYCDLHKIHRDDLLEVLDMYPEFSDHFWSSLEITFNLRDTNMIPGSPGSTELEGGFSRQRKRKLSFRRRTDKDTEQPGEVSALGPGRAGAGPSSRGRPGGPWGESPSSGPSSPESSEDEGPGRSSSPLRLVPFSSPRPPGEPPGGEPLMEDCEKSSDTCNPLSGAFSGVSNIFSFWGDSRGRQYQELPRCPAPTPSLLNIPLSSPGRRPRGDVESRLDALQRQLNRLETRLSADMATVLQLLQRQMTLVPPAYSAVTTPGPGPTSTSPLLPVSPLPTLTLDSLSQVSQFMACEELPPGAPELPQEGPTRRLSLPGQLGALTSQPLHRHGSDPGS

SMILES | IC50 [1] | IC50 [2] | bioavailability [3] | IC50 [4] | IC50 [5] | half-life [6] | IC50 [7] | clearance [8] | IC50 [9] | IC50 [10] | IC50 [11] | IC50 [12]
NC(CC(=O)N1CSC[C@H]1C(=O)NCc1ccc(CC(=O)O)cc1)Cc1ccccc1F.O=C(O)C(F)(F)F (stereo not given in full) | > 100 µM |  | 10% | > 50 µM | > 100 µM | 11.4 min |  | 25 mL/min/kg |  |  |  | 
NC(CC(=O)N1CCC[C@H]1C(=O)NCCCCc1nn[nH]n1)Cc1ccccc1F.O=C(O)C(F)(F)F (stereo not given in full) | > 100 µM | > 100 µM | < 1% | > 100 µM | > 100 µM | 12 min | 0.039 µM | 54 mL/min/kg | > 100 µM | > 100 µM |  | 
NC(CC(=O)N1CCC[C@H]1C(=O)NCc1ccc(C(=O)O)cc1)Cc1ccc(F)c(F)c1.O=C(O)C(F)(F)F (stereo not given in full) | > 100 µM |  | < 1% | > 100 µM | > 100 µM | 21.6 min |  | 47 mL/min/kg |  | > 100 µM |  | 

The next lines start with results.

IC50 [1] | IC50 [2] | bioavailability [3] | IC50 [4] | IC50 [5] | half-life [6] | IC50 [7] | clearance [8] | IC50 [9] | IC50 [10] | IC50 [11] | SMILES | IC50 [12]
55 µM | > 100 µM | 38% | 5.3 µM | > 100 µM | 46.8 min | 0.721 µM | 78 mL/min/kg | > 100 µM | > 100 µM |  | NC(CC(=O)N1CCC[C@H]1C(=O)NCc1ccc(C(F)(F)F)cc1)Cc1ccccc1F.O=C(O)C(F)(F)F (stereo not given in full) | 
> 100 µM |  |  |  | > 100 µM |  |  |  |  |  | > 100 µM | CC(C)[C@@H](Oc1ccc(CNC(=O)[C@@H]2CCCN2C(=O)C(N)C2CCCCC2)cc1)C(=O)O (stereo not given in full) | > 90 µM
> 100 µM | > 100 µM | < 1% | > 100 µM | 48 µM | 21.6 min | 0.0082 µM | 47 mL/min/kg | > 100 µM | > 100 µM | > 100 µM | CC(C)[C@@H](Oc1ccc(CNC(=O)[C@@H]2CCCN2C(=O)CC(N)Cc2c(F)c(F)c(F)c(F)c2F)cc1)C(=O)O.O=C(O)C(F)(F)F (stereo not given in full) | 
> 100 µM | > 100 µM |  | > 100 µM | 21 µM | 37.8 min | 0.00048 µM | 150 mL/min/kg | > 100 µM | 86 µM | 39 µM | CC(C)[C@@H](Oc1ccc(CNC(=O)[C@@H]2CCCN2C(=O)CC(N)Cc2cc(F)ccc2F)cc1)C(=O)O.O=C(O)C(F)(F)F (stereo not given in full) | 
59 µM | > 100 µM | 11% | > 100 µM | > 100 µM | 6 min | 0.087 µM | 140 mL/min/kg | > 100 µM | > 100 µM | 100 µM | COC(=O)Cc1ccc(CNC(=O)[C@@H]2CSCN2C(=O)CC(N)Cc2ccccc2F)cc1.O=C(O)C(F)(F)F (stereo not given in full) | 9.7 µM
